Experimental data: patent publication US20230183179A1, “NOVEL CELL METABOLISM MODULATING COMPOUNDS AND USES THEREOF” (CRESCENTA BIOSCIENCES, priority 2020, published 2023)

Experiments:
[1] = target: T1, His6 tagged human recombinant FABP4 (Homo sapiens, UniProt P15090); assay: FABP4 TR-FRET assay: displacement of fluorescent fatty acid BODIPY FL C12; settings: inhibition of BODIPY FL C12 binding to His6-FABP4; 1.2 μL of 1.085 mM compound in DMSO per well; triplicates, mean percent inhibition
T1 construct: purchased Cayman Chemicals 10009549
Procedure, shortened: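 TR-FRET displacement of BODIPY FL C12 from His6-FABP4 bound by Tb-anti-His6 antibody, in Tris pH 7.4 buffer with γ-globulins, NP-40 and DTT; compound stock 1.085 mM in DMSO. Read after 10 min at room temperature as 520/615 nm ratio; mean % inhibition versus DMSO from triplicates.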

[2] = tested on: differentiated 3T3-L1 mouse adipocyte cells; assay: Adipocyte glucose consumption in differentiated 3T3-L1 cells (colorimetric glucose assay of the medium); assay type: cell-based; settings: 3T3-L1, 24 h, compound 10 μM, loss of glucose from culture medium, mean fold change (compound/DMSO)
Procedure, shortened: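 Differentiated 3T3-L1 mouse adipocytes (rosiglitazone/dexamethasone/IBMX/insulin induction, day 11) treated 24 h with compounds at 10 μM, 0.1% DMSO final. Medium glucose measured colorimetrically; consumption taken as glucose loss from medium versus cell-free control, expressed as mean fold change compound/DMSO ±SD.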

T1 sequence (P15090 whole entry): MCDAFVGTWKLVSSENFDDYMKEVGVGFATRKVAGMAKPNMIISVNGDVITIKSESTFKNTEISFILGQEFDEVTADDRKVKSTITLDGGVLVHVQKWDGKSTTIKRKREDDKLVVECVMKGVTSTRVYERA

SMILES: CCCCc1ccc2nc(N(C)CC(C)C(=O)O)cc(-c3cccnc3)c2c1 (stereo not drawn) [3-{[6-butyl-4-(pyridin-3-yl)quinolin-2-yl](methyl)amino}-2-methylpropanoic acid]
- inhibition at 1085 µM (stock) [1]: 46.4%
- fold induction at 10 µM [2]: 1.13

SMILES: CCCCCCc1ccc2nc(N(C)CC(C)C(=O)O)cc(-c3cccnc3)c2c1 (stereo not drawn) [3-{[6-hexyl-4-(pyridin-3-yl)quinolin-2-yl](methyl)amino}-2-methylpropanoic acid]
- inhibition at 1085 µM (stock) [1]: 54.7%
- fold induction at 10 µM [2]: 1.16

SMILES: CCCCc1ccc2nc(N3CCOC(C(=O)O)C3)cc(-c3ccccc3)c2c1 (stereo not drawn) [4-(6-butyl-4-phenylquinolin-2-yl)morpholine-2-carboxylic acid]
- inhibition at 1085 µM (stock) [1]: 21.1%
- fold induction at 10 µM [2]: 1.07

SMILES: CCCCCCc1ccc2nc(N3CCOC(C(=O)O)C3)cc(-c3ccccc3)c2c1 (stereo not drawn) [4-(6-hexyl-4-phenylquinolin-2-yl)morpholine-2-carboxylic acid]
- inhibition at 1085 µM (stock) [1]: 36.1%
- fold induction at 10 µM [2]: 1.22

SMILES: CC(C)(c1cc(-c2ccccc2)c2cc(CCc3ccccc3)ccc2n1)c1nnn[nH]1 [4-phenyl-6-(2-phenylethyl)-2-[2-(1H-1,2,3,4-tetrazol-5-yl)propan-2-yl]quinoline]
- inhibition at 1085 µM (stock) [1]: 75%
- fold induction at 10 µM [2]: 1.2

SMILES: O=C(O)C1CC(=O)N(c2cc(-c3ccccc3)c3cc(CCc4ccccc4)ccc3n2)C1 (stereo not drawn) [5-oxo-1-[4-phenyl-6-(2-phenylethyl)quinolin-2-yl]pyrrolidine-3-carboxylic acid]
- inhibition at 1085 µM (stock) [1]: 7.89%
- fold induction at 10 µM [2]: 1.24

SMILES: O=C1NC(=O)C(Cc2cc(-c3ccccc3)c3cc(CCc4ccccc4)ccc3n2)S1 (stereo not drawn) [5-{[4-phenyl-6-(2-phenylethyl)quinolin-2-yl]methyl}-1,3-thiazolidine-2,4-dione]
- inhibition at 1085 µM (stock) [1]: 73.5%
- fold induction at 10 µM [2]: 1.45

SMILES: CCCCc1ccc2nc(OCC(=O)O)c(C(=O)O)c(-c3ccccc3)c2c1 [6-butyl-2-(carboxymethoxy)-4-phenylquinoline-3-carboxylic acid]
- inhibition at 1085 µM (stock) [1]: 44.6%
- fold induction at 10 µM [2]: 0.99

SMILES: CCCCc1ccc2nc(N3CCCCC3)cc(-c3ccccc3)c2c1 [6-butyl-4-phenyl-2-(piperidin-1-yl)quinoline]
- inhibition at 1085 µM (stock) [1]: 56.5%
- fold induction at 10 µM [2]: 0.99

SMILES: Clc1ccc2nc(N3CCCCC3)cc(-c3ccccc3)c2c1 [6-chloro-4-phenyl-2-(piperidin-1-yl)quinoline]
- inhibition at 1085 µM (stock) [1]: 64.3%
- fold induction at 10 µM [2]: 0.99

SMILES: CCCCCCc1ccc2nc(N3CCCCC3)cc(-c3ccccc3)c2c1 [6-hexyl-4-phenyl-2-(piperidin-1-yl)quinoline]
- inhibition at 1085 µM (stock) [1]: 46.3%
- fold induction at 10 µM [2]: 1.18

SMILES: CCCCCCc1ccc2nc(N(C)Cc3nn[nH]n3)cc(-c3ccccc3)c2c1 [6-hexyl-N-methyl-4-phenyl-N-[(2H-1,2,3,4-tetrazol-5-yl)methyl]quinolin-2-amine]
- inhibition at 1085 µM (stock) [1]: 37.8%
- fold induction at 10 µM [2]: 1.52

SMILES: CCCCc1ccc2nc(N(C)C(C(=O)O)C(C)C)cc(-c3cccc(C#N)c3)c2c1 (stereo not drawn) [N-(6-butyl-4-(3-cyanophenyl)quinolin-2-yl)-N-methylvaline?]
- inhibition at 1085 µM (stock) [1]: 21%
- fold induction at 10 µM [2]: 1.18

SMILES: CCCCCCc1ccc2nc(N(c3nnn[nH]3)C3CC3)cc(-c3ccccc3)c2c1 [N-cyclopropyl-6-hexyl-4-phenyl-N-(1H-1,2,3,4-tetrazol-5-yl)quinolin-2-amine]
- inhibition at 1085 µM (stock) [1]: 84%
- fold induction at 10 µM [2]: 1.18

SMILES: CN(c1cc(-c2ccccc2)c2cc(CCc3ccccc3)ccc2n1)c1nnn[nH]1 [N-methyl-4-phenyl-6-(2-phenylethyl)-N-(1H-1,2,3,4-tetrazol-5-yl)quinolin-2-amine]
- inhibition at 1085 µM (stock) [1]: 76.3%
- fold induction at 10 µM [2]: 1.17
